Experimental data taken from US7049302B1, “Compositions of CPG and saponin adjuvants and uses thereof” (Antigenics Inc., priority 1998, dated 2006).

How the values were obtained:
Type in all cases: in vivo, C57BL/6 mice
[1] = tested on: E.G7-OVA cells; assay: 51Cr release CTL assay, splenocytes of OVA-immunized mice stimulated in vitro with denatured OVA; details: 1.25 μg QS-21 alone (suboptimal dose), with 25 μg OVA, FIG. 2
Protocol: C57BL/6 mice (5 per group, female, 8–10 weeks of age) were immunized by subcutaneous route at days 1, 15, and 29. The vaccines were 25 μg OVA antigen plus the indicated doses of adjuvant in a total volume of 0.2 ml phosphate-buffered saline. […] (Weiner, et al., Proc. Natl. Acad. Sci. 94:10833 (1997).) Splenocytes were removed at day 42 for use as effector cells in the CTL assay. They were stimulated in vitro for 6 days with mitomycin C-treated E.G7-OVA cells and then used in a standard ^51Cr release CTL assay. E.G7-OVA cells (loaded with ^51Cr) were used as target cells. The background lysis of EL4 cells (not transfected by OVA) was subtracted from the lysis of E.G7-OVA cells to obtain a percent (%) antigen-specific lysis.
Splenocytes from mice immunized as described in FIG. 1 were used in a CTL assay. Splenocytes were stimulated in vitro with denatured OVA for six days prior to use in the CTL assay. The assay was carried out against E.G7-OVA cells as described in Example 1.

[2] = tested on: E.G7-OVA cells; assay: 51Cr release CTL assay, splenocytes of OVA-immunized mice stimulated in vitro with mitomycin C-treated E.G7-OVA cells; details: 1.25 μg QS-21 alone (suboptimal dose), with 25 μg OVA s.c. days 1, 15, 29; splenocytes day 42; FIG. 1
Protocol: C57BL/6 mice (5 per group, female, 8–10 weeks of age) were immunized by subcutaneous route at days 1, 15, and 29. The vaccines were 25 μg OVA antigen plus the indicated doses of adjuvant in a total volume of 0.2 ml phosphate-buffered saline. […] They were stimulated in vitro for 6 days with mitomycin C-treated E.G7-OVA cells and then used in a standard ^51Cr release CTL assay. E.G7-OVA cells (loaded with ^51Cr) were used as target cells. The background lysis of EL4 cells (not transfected by OVA) was subtracted from the lysis of E.G7-OVA cells to obtain a percent (%) antigen-specific lysis.

[3] = tested on: OVA; assay: Serum IgG1 and IgG2a titers to OVA by EIA; details: sera day 42
Protocol: Serum titers to OVA were determined by EIA on sera collected on day 42 from the mice immunized as described in Example 1. IgG subclass IgG1 and IgG2a titers were determined for individual mice (5 mice per group) and are plotted as a geometric mean titer.

QS-21
antigen-specific lysis (CTL) [1]: no lysis | antigen-specific lysis (CTL) [2]: no lysis | OVA-specific IgG1 titer, enhancement over the unadjuvanted group ([3]; 10 μg QS-21 alone, geometric mean titer, among the highest groups, FIG. 3): ~10 fold | OVA-specific IgG2a response ([3]; any QS-21 dose used alone): not detected
